pIC50: −log10 of the molar value.
What was measured:
[1] = Inhibition of epinephrine induced human blood platelet aggregation; format: functional
[2] = Inhibition of ADP induced human blood platelet aggregation; format: functional
[3] = molecular target: Adrenergic receptor alpha (Rattus norvegicus) (UniProt P15823+P23944+P43140+P22086+P19328+P22909); experiment: Ratio of IC50 towards alpha1 to alpha-2 receptors of rat vas deferens; format: protein assay
Rattus norvegicus [4] = species: Rattus norvegicus; experiment: Alpha-1-adrenoceptor blocking activity by antagonism of (-)-norepinephrine induced contractions of epididymal portion of rat vas deferens; format: functional
[5] = molecular target: T1, Adrenergic receptor alpha-2 (Rattus norvegicus, UniProt P22086+P19328+P22909); experiment: Alpha-2 adrenergic receptor blocking activity by antagonism of clonidine induced depression of twitch response of field stimulated prostatic portion of rat vas deferens; format: functional, tissue-based
T1 sequence (P22086 whole entry): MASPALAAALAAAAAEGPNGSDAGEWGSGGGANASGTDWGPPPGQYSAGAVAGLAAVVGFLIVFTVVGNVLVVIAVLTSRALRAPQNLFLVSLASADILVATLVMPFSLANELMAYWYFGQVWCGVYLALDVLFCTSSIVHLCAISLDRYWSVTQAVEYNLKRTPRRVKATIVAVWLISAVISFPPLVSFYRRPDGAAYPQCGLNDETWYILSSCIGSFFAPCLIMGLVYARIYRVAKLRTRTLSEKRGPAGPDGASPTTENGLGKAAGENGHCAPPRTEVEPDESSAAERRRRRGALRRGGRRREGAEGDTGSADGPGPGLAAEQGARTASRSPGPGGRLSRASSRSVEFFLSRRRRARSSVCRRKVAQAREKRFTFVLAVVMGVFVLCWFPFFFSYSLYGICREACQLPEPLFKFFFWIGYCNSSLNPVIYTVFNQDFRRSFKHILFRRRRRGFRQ
T1 sequence (P19328 whole entry): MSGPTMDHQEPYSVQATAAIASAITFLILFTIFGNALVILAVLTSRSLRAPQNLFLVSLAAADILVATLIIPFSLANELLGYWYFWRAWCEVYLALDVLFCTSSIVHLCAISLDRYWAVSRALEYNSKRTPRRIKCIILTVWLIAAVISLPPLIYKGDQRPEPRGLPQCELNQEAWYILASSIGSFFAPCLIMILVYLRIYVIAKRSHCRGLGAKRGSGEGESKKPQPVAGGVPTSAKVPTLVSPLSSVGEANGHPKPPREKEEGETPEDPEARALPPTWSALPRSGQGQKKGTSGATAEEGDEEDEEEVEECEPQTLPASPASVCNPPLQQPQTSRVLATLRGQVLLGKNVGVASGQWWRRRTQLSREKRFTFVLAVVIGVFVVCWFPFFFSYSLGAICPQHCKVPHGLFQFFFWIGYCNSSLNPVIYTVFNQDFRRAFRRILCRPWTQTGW
T1 sequence (P22909 whole entry): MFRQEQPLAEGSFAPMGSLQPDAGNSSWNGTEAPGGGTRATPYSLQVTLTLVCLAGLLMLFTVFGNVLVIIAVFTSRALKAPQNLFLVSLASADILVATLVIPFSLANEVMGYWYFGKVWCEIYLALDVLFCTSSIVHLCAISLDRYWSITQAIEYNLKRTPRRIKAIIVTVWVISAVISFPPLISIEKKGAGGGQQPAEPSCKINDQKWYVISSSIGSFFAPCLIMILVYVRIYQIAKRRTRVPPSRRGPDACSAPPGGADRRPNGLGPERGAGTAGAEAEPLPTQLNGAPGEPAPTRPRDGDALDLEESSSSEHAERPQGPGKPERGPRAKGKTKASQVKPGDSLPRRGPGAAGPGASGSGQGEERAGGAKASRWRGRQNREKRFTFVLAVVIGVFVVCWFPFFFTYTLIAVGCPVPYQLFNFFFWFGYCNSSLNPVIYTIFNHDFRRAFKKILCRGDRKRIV

Rattus norvegicus [6] = species: Rattus norvegicus; experiment: Alpha-1-adrenoceptor blocking activity by antagonism of (-)-norepinephrine induced contractions of epididymal portion of rat vas deferens; Inactive up to a concentration of 20 uM; format: functional

Structure (SMILES) | pIC50 [1] | pIC50 [2] | Selectivity [3] | pIC50 (Rattus norvegicus [4]) | IC50 [5] [µM] | IC50 (Rattus norvegicus [6])
Nc1ncnc2c1ncn2[C@@H]1O[C@H](CO)[C@@H](O)[C@H]1O [ADENOSINE] | 5.74 | 5.60 |  |  |  | 
COc1ccccc1CNCCCCCCNCCCCCCNCCSSCCNCCCCCCNCCCCCCNCc1ccccc1OC.Cl.O |  |  |  |  |  | Not Active
COc1ccccc1CNCCCCCCCCCCCCN(C)CCSSCCN(C)CCCCCCCCCCCCNCc1ccccc1OC |  |  | < 2.35 | 4.33 |  | 
C1=CC(CNCCCCCCCCCCCCNCCSSCCNCCCCCCCCCCCCNCC2C=CC=N2)N=C1 (stereo unspecified) |  |  | < 0.37 | 5.14 |  | 
COc1ccccc1CNCCC(=O)NCCCCCCCCNCCSSCCNCCCCCCCCNC(=O)CCNCc1ccccc1OC |  |  |  |  |  | Not Active
COc1ccccc1CNCCCNCCCCCCCCNCCSSCCNCCCCCCCCNCCCNCc1ccccc1OC.Cl.O |  |  |  |  |  | Not Active
COc1ccccc1CNCCCCCC(=O)NCCCCCCNCCSSCCNCCCCCCNC(=O)CCCCCNCc1ccccc1OC |  |  |  |  |  | Not Active
COc1ccccc1CNCCCCCCCCCCCCNCCSSCCNCCCCCCCCCCCCNCc1ccccc1OC | 5.77 | 5.68 | < 0.41 | 5.08 |  | 

The next lines start with the values.

pIC50 [1] | pIC50 [2] | Selectivity [3] | pIC50 (Rattus norvegicus [4]) | IC50 [5] [µM] | IC50 (Rattus norvegicus [6]) | Structure (SMILES)
5.64 | 5.22 | < 3.4 | 4.17 |  |  | COc1ccccc1CNCCCCCCCCCNCCSSCCNCCCCCCCCCNCc1ccccc1OC
4.50 | 4.01 | 9.2 | 5.12 | 0.82 |  | COc1ccccc1CNCCCCCCNCCSSCCNCCCCCCNCc1ccccc1OC [BENEXTRAMINE]
5.27 | 4.64 | 80.7 | 4.01 | 1.22 |  | COc1ccccc1CNCCCCCCCCNCCSSCCNCCCCCCCCNCc1ccccc1OC
5.77 | 5.68 | < 2.57 | 4.29 |  |  | COc1ccccc1CNCCCCCCCCCCCNCCSSCCNCCCCCCCCCCCNCc1ccccc1OC
5.66 | 5.55 | < 3.14 | 4.20 |  |  | COc1ccccc1CNCCCCCCCCCCNCCSSCCNCCCCCCCCCCNCc1ccccc1OC
4.69 | 4.38 | 53.1 | 4.26 | 1.04 |  | COc1ccccc1CNCCCCCCCNCCSSCCNCCCCCCCNCc1ccccc1OC
4.34 | 4.06 | 2.16 | 4.25 | 25.8 |  | COc1ccccc1CNCCCCCNCCSSCCNCCCCCNCc1ccccc1OC

From ChEMBL document CHEMBL1124213, “Structure-activity relationships among benextramine-related tetraamine disulfides. Chain length effect on alpha-adrenoreceptor blocking activity” (J Med Chem, 1988)
